# Data reported in patent US20160272969A1, “COMPOSITIONS AND METHODS FOR MODULATING AUTOPHAGIC CELL DEATH” (priority 2013, published 2016).
# Where a SMILES comes first, the peptide text is derived from it. [ ]: non-standard residue; d: D form. The star is where a group is joined. Sta = CC(C)C[C@H](N)[C@@H](O)CC(=O)O; Isovaleryl = CC(C)CC(=O)*
# Assays:
# MCF-7 cells [1] = assay: Labeling of autophagic vacuoles with monodansylcadaverine (MDC), MCF-7 cells; type: cell-based, human; conditions: for MDC uptake in cells treated with TPCK: MCF-7 cells treated with TPCK, 3 MA 5 mM or bafilomycin A1 50 nM, 24 hours
# Experimental: (§1) The human breast cancer MCF-7 cell line was cultured in DMEM (Invitrogen, 41965) supplemented with 10% FBS (Beit Haemek, 04-121-1A), 300 mg/l L-glutamine (Beit Haemek, 03-020-1B), 100 U/ml penicillin, 100 μg/ml streptomycin and 12.5 U/ml nystatin (Beit Haemek, 03-032-1B) and 100 U/ml recombinant human insulin (Beit Haemek, 01-818-1H), at 37° C. in 5% CO2.
# (§2) Cells were plated in 24-wells plate or 96-well plates at a concentration of 5·10^4 cells/ml. A day later the cells were treated with different concentrations of tamoxifen or TPCK as indicated below.
# (§3) Following treatment, the cells were incubated with 0.05 mM MDC in PBS at 37° C. for 10 minutes (Biederbick et al., Eur J Cell Biol. 1995 January; 66(1):3-14). Intracellular MDC was measured by fluorescence photometry (excitation wavelength 380 nm, emission filter 525 nm) in a TECAN SPECTRA Fluor Plus microplate reader. The MDC fluorescence intensity was correlated to cell density as measured by XTT reduction assay performed in parallel treated samples. The results are expressed as fluorescence/cell.
# (§4) For visualization of MDC-labeled vacuoles, cells were grown on coverslips, incubated with 0.05 mM MDC at 37° C. for 10 minutes. After incubation, cells were washed four times with PBS and immediately analyzed by fluorescence microscopy.
# MCF-7 cells [2] = assay: Cell death by trypan blue staining, MCF-7 cells; type: cell-based, human; conditions: for TPCK or tamoxifen-induced cell death on addition of autophagy inhibitor: 50 nM bafilomycin A1, 5 mM 3-Methyladenine or combination of 10 m/ml pepstatin with 10 m/ml E64-d
# Experimental: as §1, §2
# HT-29 cells [3] = assay: Western blot of LC3-II levels, HT-29 cells; type: cell-based, human; conditions: for TPCK-induced accumulation of LC3-II: co-incubation with E64d and pepstatin A together
# MCF-7 cells [4] = assay: Western blot of LC3-II levels, MCF-7 cells; type: cell-based, human; conditions: for TPCK-induced accumulation of LC3-II: co-incubation with E64d and pepstatin A together
# MCF-7 cells [5] = assay: Western blot of intracellular AAT level, MCF-7 cells; type: cell-based, human; conditions: MCF-7 cell lysates; TPCK 50 μM, tamoxifen 10 μM; 1-3 hr treatment
# Experimental: (§5) Normal or treated 10^7 cells were collected, washed twice with ice-cold PBS and resuspended in 0.5 ml ice-cold lysing buffer (50 mM Tris-HCl pH 7.5, 0.1% NP-40, 1 mM DTT, 0.25M sucrose, 2 mM MgCl2). The cells were broken by politron (4 cycles of 7 sec) and the cell debris pelleted by centrifugation in an ultracentrifuge at 120,000×g for 30 min, at 4° C. The supernatant was used immediately or stored at −70° C. Protein content of each sample was determined with BioRad reagent according to Bradford's method using bovine serum albumin (BSA) as standard. Equal amounts of protein samples (40 μg/lane) were subjected to 10% SDS-PAGE before being transferred to polyvinylidene difluoride (PVDF) membranes. The samples were then exposed to the following primary antibodies: goat anti-AAT and goat anti-actin (Santa Cruz Biotechnology, Santa Cruz, Calif.) polyclonal antibody. The secondary antibody was an HRP-conjugated anti-goat IgG (Jackson ImmunoResearch, USA). The membranes were blocked with 5% skin milk/Tris-buffered saline containing 0.1% Tween-20 (TBST) at room temperature for 1 h, after which the samples were incubated overnight at 4° C. with each of the above primary antibodies. The membranes were then washed three times with TBST, followed by 1 h incubation at room temperature with the secondary antibody. […]
# HT-29 cells [6] = assay: Western blot of intracellular AAT level, HT-29 cells; type: cell-based, human; conditions: HT-29 cell lysates; TPCK 50 μM, tamoxifen 10 μM; 1-3 hr treatment
# Experimental: as §5
# [7] = molecular target: alpha-1-antitrypsin (AAT) (Homo sapiens, UniProt P01009); assay: Interaction assay between AAT and TRFCK (SDS-PAGE fluorescence, Western blot); type: binding
# Chain of alpha-1-antitrypsin (AAT) (Homo sapiens, UniProt P01009) (P01009 25-418): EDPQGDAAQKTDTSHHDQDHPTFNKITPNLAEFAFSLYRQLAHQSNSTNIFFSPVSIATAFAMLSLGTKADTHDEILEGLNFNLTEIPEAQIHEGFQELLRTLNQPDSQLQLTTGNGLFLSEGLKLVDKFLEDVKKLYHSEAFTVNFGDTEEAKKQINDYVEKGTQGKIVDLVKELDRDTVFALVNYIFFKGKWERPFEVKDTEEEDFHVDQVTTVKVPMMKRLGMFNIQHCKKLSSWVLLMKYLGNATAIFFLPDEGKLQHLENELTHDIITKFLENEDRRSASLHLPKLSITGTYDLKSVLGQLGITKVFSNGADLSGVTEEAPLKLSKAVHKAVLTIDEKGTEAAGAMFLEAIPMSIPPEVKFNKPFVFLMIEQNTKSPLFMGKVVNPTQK
# Experimental: 2 μg/μl AAT was incubated in vitro with 50 μM TRFCK in 37° c. for 30 min. After the incubation time the sample was subjected to 10% SDS-PAGE before being transferred to polyvinylidene difluoride (PVDF) membranes. At the end of the transfer the membrane was analyzed under UV lamp to track TRFCK fluorescence. The sample was then exposed to primary antibody anti-AAT. The secondary antibody was an HRP-conjugated anti-goat IgG (Jackson ImmunoResearch, USA) The membrane was then visualized using an ECL+plus Western Blotting Detection System.
# AAT was incubated in vitro with 50 μM TRFCK (a fluorescence analog of TPCK, N-tosyl-L-phenylalanine chloromethyl ketone) in 37° C. for 30 min. Following incubation, the sample was applied to SDS-PAGE electrophoresis and transferred to PVDF membrane. Thereafter, the membrane was analyzed under UV lamp to track TRFCK fluorescence (FIG. 2, track 1). In addition, Western blot analysis was performed using the same membrane with an antibody against AAT (FIG. 2, track 2).
# trypsin = assay: Trypsin activity assay (BAEE cleavage); type: biochemical; conditions: substrate BAEE, absorbance at 253 nm
# Experimental: (§6) Trypsin activity was determined according to Bergmeyer et. al. (Bergmeyer, H. U., Gawehn, K. and Grassl, M. (1974) in Methods of Enzymatic Analysis (Bergmeyer, H. U. ed.) Volume 1, 2nd ed., 516-517, Academic Press, New York, N.Y.). All assays were set up at a total volume of 1 ml by adding 65 μl trypsin at final amount of 1.625 μg, 0.23 mM Na-benzoyl-L-arginine ethyl ester (BAEE) as substrate in 63 mM sodium phosphate, in the presence or absence of 100 μM or 125 μM AAT with or without different concentration of TPCK. Trypsin activity was measured by the cleavage of the substrate BAEE by measuring absorbance at 253 nm.
# AAT = AAT (Homo sapiens, UniProt P01009); assay: AAT inhibition of trypsin activity (BAEE cleavage); type: biochemical; conditions: TPCK added to AAT and trypsin; P<0.001 compared with control
# Chain of AAT (P01009 25-418): as above
# Experimental: as §6
# HT-29 cells [8] = assay: Labeling of autophagic vacuoles with monodansylcadaverine (MDC), HT-29 cells; type: cell-based, human; conditions: HT-29 cells treated with TPCK for 24 hours
# Experimental: HT-29 colorectal adenocarcinoma cells were cultured in RPMI 1640 (Invitrogene, 21875) supplemented with 10% FBS, 300 mg/l L-glutamine, 100 U/ml penicillin, 100 μg/ml streptomycin and 12.5 U/ml nystatin at 37° C. in 5% CO2.
# as §2, §3, §4
# [9] = test system: GFP-LC3 transfected MCF-7 cells; assay: GFP-LC3 imaging of transfected MCF-7 cells; type: cell-based, human; conditions: TPCK 50 μM, 24 hours
# [10] = test system: alpha-1-antitrypsin (AAT)
molecule,measurement,setting,value
Cn1cnc(N)c2ncnc1-2 [3-Methyladenine],MDC uptake in cells treated with TPCK,MCF-7 cells [1],suppressed MDC uptake
same,TPCK or tamoxifen-induced cell death on addition of autophagy inhibitor,MCF-7 cells [2],reduced TPCK or tamoxifen-induced cell death
CCOC(=O)[C@H]1O[C@@H]1C(=O)N[C@@H](CC(C)C)C(=O)NCCC(C)C [E64d],TPCK-induced accumulation of LC3-II,HT-29 cells [3],enhanced TPCK-induced accumulation of LC3-II
same,TPCK-induced accumulation of LC3-II,MCF-7 cells [4],enhanced TPCK-induced accumulation of LC3-II
same,TPCK or tamoxifen-induced cell death on addition of autophagy inhibitor,MCF-7 cells [2],reduced TPCK or tamoxifen-induced cell death
CO/C1=C\C(C)=C\[C@@H](C)[C@@H](O)[C@@H](C)C/C(C)=C/C=C/[C@H](OC)[C@@H]([C@@H](C)[C@@H](O)[C@H](C)[C@@]2(O)C[C@@H](O)[C@H](C)[C@@H](C(C)C)O2)OC1=O [bafilomycin A1],MDC uptake in cells treated with TPCK,MCF-7 cells [1],suppressed MDC uptake
same,TPCK or tamoxifen-induced cell death on addition of autophagy inhibitor,MCF-7 cells [2],reduced TPCK or tamoxifen-induced cell death
CC(C)CC(=O)N[C@H](C(=O)N[C@H](C(=O)N[C@@H](CC(C)C)[C@@H](O)CC(=O)N[C@@H](C)C(=O)N[C@@H](CC(C)C)[C@@H](O)CC(=O)O)C(C)C)C(C)C [pepstatin A] (Isovaleryl-VV[Sta]A[Sta]-OH),TPCK-induced accumulation of LC3-II,HT-29 cells [3],enhanced TPCK-induced accumulation of LC3-II
same,TPCK-induced accumulation of LC3-II,MCF-7 cells [4],enhanced TPCK-induced accumulation of LC3-II
same,TPCK or tamoxifen-induced cell death on addition of autophagy inhibitor,MCF-7 cells [2],reduced TPCK or tamoxifen-induced cell death
CC/C(=C(\c1ccccc1)c1ccc(OCCN(C)C)cc1)c1ccccc1 [tamoxifen],AAT level as compared to actin,MCF-7 cells [5],AAT level decreased
same,AAT level as compared to actin,HT-29 cells [6],AAT level decreased
same,competition with TRFCK on binding to AAT,[7],not able to compete with TRFCK on binding to AAT
same,cell death by trypan blue staining,MCF-7 cells [2],induced cell death
AAT: plasma-derived protein of the serine proteinase inhibitor family; recombinant AAT added to cells,"autophagy induced by TPCK and tamoxifen, assessed by MDC staining","MCF-7 cells [1]; MCF-7 cells, AAT added prior to induction by TPCK (50 μM, 24 h) or tamoxifen (5 μM, 72 h)",reduction in autophagy
same,trypsin activity,trypsin,inhibits trypsin activity
same,"cell death induced by TPCK and tamoxifen, determined by trypan blue staining","MCF-7 cells [2]; AAT added prior to induction by TPCK (50 μM, 24 h) or tamoxifen (5 μM, 72 h)",reduction
N-tosyl-L-phenylalanine chloromethyl ketone [TPCK],AAT inhibition of trypsin activity,AAT,the inhibition by AAT was abolished
same,AAT level as compared to actin,MCF-7 cells [5],AAT level decreased
same,"MDC fluorescence intensity, number and size of MDC-labeled vesicles",HT-29 cells [8],dose dependent increase in fluorescence intensity
same,AAT level as compared to actin,HT-29 cells [6],AAT level decreased
same,LC3-II by western blot,"HT-29 cells [3]; TPCK 50 μM, different times",appearance of LC3-II
same,GFP-LC3 label (number of autophagosomes),[9],accumulation of this label
same,"MDC fluorescence intensity, number and size of MDC-labeled vesicles",MCF-7 cells [1]; MCF-7 cells treated with TPCK for 24 hours,dose dependent increase in fluorescence intensity
same,LC3-II by western blot,"MCF-7 cells [4]; TPCK 50 μM, different times",appearance of LC3-II
same,trypsin activity,trypsin,did not inhibit the trypsin activity
same,cell death by trypan blue staining,MCF-7 cells [2],induced cell death
trypsin,"trypsin activity (cleavage of the substrate BAEE, absorbance at 253 nm)",[10],AAT inhibits trypsin activity
